Reference: ChEMBL document CHEMBL1155692, “An unusual nitrogenous terphenyl derivative from fruiting bodies of the basidiomycete Sarcodon leucopus” (2000)
≈ marks a conversion by molar mass, not a printed value.

Columns and labels:
KB = assay: Cytotoxicity against human KB cells; format: functional; conditions: read-out: ED50 (the source's name)
P388 = assay: Cytotoxicity against mouse P388 cells; format: functional; conditions: read-out: ED50 (the source's name)

Question: How did the EC50 (KB) turn out when `CC[C@@H](C)[C@]12Oc3cc(-c4c(O)c(O)c(-c5ccc(OC(C)=O)cc5)c(OC(C)=O)c4OC(C)=O)ccc3O[N+]1([O-])C(O)=C([C@@H](C)CC)N(O)C2=O` (some centres not stated) [SARCODONIN] was run?
Answer: 10 µg/mL (≈ 13.8 µM)

Question: What about the EC50 (P388) of the same molecule?
Answer: 27 µg/mL (≈ 37.4 µM)
